Test results from patent publication US20110045101A1, “FUNGICIDAL SUBSTITUTED AZOLES” (E.I. Du Pont De Nemours and Company, priority 2009, published 2011).
Marks after values point to notes of the source that are not given here.

Assays:
Type in all cases: in vivo
Conditions in all cases: 100 = 100% disease control
Botrytis cinerea = experiment: Test C: tomato Botrytis on tomato seedlings, sprayed the day before inoculation, visual disease rating
Procedure, shortened: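 Rate: 200 ppm sprayed to run-off, corresponding to 500 g/ha; flagged values used 40 ppm. Vehicle was aqueous acetone (1:1) plus 250 ppm surfactant, compounds predissolved in acetone at 3% of volume. Plants were tomato seedlings.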

Alternaria solani = experiment: Test D: tomato early blight, sprayed the day before inoculation, visual disease rating
Procedure, shortened: (§1)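 Plants received a run-off spray at 200 ppm (equivalent to 500 g/ha) or, for starred values, 40 ppm. Formulation used acetone at 3% of volume in a 50/50 acetone/water mix carrying 250 ppm Trem® 014.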

Septoria nodorum = experiment: Test F: wheat glume blotch on wheat seedlings, sprayed the day before inoculation, visual disease rating
Procedure, shortened: as §1

Septoria tritici = experiment: Test G: wheat leaf blotch on wheat seedlings, sprayed the day before inoculation, visual disease rating
Procedure, shortened: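 Disease was rated visually after Septoria tritici inoculation, 48 h saturated incubation at 24°C and 19 days in a 20°C growth chamber. Inoculation followed one day after run-off spraying of seedlings with compound at 200 ppm (≈500 g/ha) or, where marked, 40 ppm, formulated in acetone/water with surfactant.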

[1] = tested on: Puccinia recondita f. sp. tritici; experiment: Test I: wheat leaf rust on wheat seedlings, sprayed the day before inoculation, visual disease rating
Procedure, shortened: as §1

[2] = tested on: Erysiphe graminis f. sp. tritici; experiment: Test J: wheat powdery mildew on wheat seedlings, sprayed the day before inoculation, visual disease rating
Procedure, shortened: as §1

[3] = 200 ppm, 0 = no control relative to controls

Structure (SMILES)	Test C disease control rating (Botrytis cinerea; [3])	Test D disease control rating (Alternaria solani; [3])	Test F disease control rating (Septoria nodorum; [3])	Test G disease control rating (Septoria tritici; [3])	Test I disease control rating [1, 3]	Test J disease control rating [2, 3]	Test C disease control rating (Botrytis cinerea; 200 ppm, 0 = no control)	Test D disease control rating (Alternaria solani; 200 ppm, 0 = no control)	Test F disease control rating (Septoria nodorum; 200 ppm, 0 = no control)	Test G disease control rating (Septoria tritici; 200 ppm, 0 = no control)	Test I disease control rating ([1]; 200 ppm, 0 = no control)	Test J disease control rating ([2]; 200 ppm, 0 = no control)	other results
Fc1cc(F)c(-n2c(Br)nc(Cl)c2-c2ccc(Cl)cc2)c(F)c1 [compound 131]	–	–	–	–	–	–	–	–	–	–	–	–	Test C disease control rating (Botrytis cinerea; 40 ppm (marked *)): 90* %; Test D disease control rating (Alternaria solani; 40 ppm (marked *)): 99* %; Test F disease control rating (Septoria nodorum; 40 ppm (marked *)): 0* %; Test G disease control rating (Septoria tritici; 40 ppm (marked *)): 85* %; Test I disease control rating ([1]; 40 ppm (marked *)): 0* %; Test J disease control rating ([2]; 40 ppm (marked *)): 48* %
Fc1ccc(-n2c(Cl)nc(Cl)c2-c2c(F)ccc(F)c2F)cc1 [compound 129]	99%	100%	0%	89%	74%	95%	–	–	–	–	–	–	–
Cc1nc(Cl)c(-c2c(F)cccc2F)n1Cc1cccc(Cl)c1 [compound 126]	97%	99%	69%	96%	99%	99%	–	–	–	–	–	–	–
COc1ccc(F)c(-c2c(Cl)nc(Cl)n2-c2ccc(I)cc2)c1F [compound 444]	99%	100%	100%	98%	95%	99%	–	–	–	–	–	–	–
COc1ccc(Cn2cnc(Cl)c2-c2c(F)cccc2F)cc1 [compound 194]	–	–	–	–	–	–	99%	95%	73%	97%	100%	96%	–
Cc1ccc(-n2cnc(Cl)c2-c2c(F)cc(F)cc2F)cc1 [compound 139]	99%	100%	0%	75%	98%	98%	–	–	–	–	–	–	–
Cc1ccc(F)c(-c2c(Cl)ncn2-c2ccc(Cl)cc2)c1F [compound 97]	94%	97%	0%	95%	91%	99%	–	–	–	–	–	–	–
Fc1cccc(F)c1-c1c(Cl)nc(Br)n1Cc1ccccc1 [compound 95]	96%	97%	95%	95%	100%	100%	–	–	–	–	–	–	–
COc1cc(F)c(-c2c(C)nc(Cl)n2-c2ccc(Cl)c(F)c2)c(F)c1 [compound 261]	–	–	–	–	–	–	99%	100%	100%	95%	100%	100%	–
Fc1ccc(F)c(-c2c(Cl)nc(Br)n2-c2ccc(Cl)cc2)c1 [compound 85]	73%	100%	11%	98%	96%	100%	–	–	–	–	–	–	–
COc1cc(F)c(-c2c(C)ncn2-c2ccccn2)c(F)c1 [compound 250]	–	–	–	–	–	–	99%	100%	0%	83%	99%	94%	–
COc1cc(F)c(-c2c(-c3cccc(F)c3)c(C)nn2C)c(F)c1 [compound 78]	91%	100%	0%	92%	99%	100%	–	–	–	–	–	–	–
Cc1ccc(-n2cnc(Cl)c2-c2c(F)cccc2F)cc1F [compound 161]	–	–	–	–	–	–	99%	71%	0%	1%	80%	100%	–
Cc1ncn(-c2ccc(Cl)c(F)c2)c1-c1c(Cl)cncc1Cl [compound 255]	–	–	–	–	–	–	99%	0%	0%	95%	86%	91%	–
